# Test results published in patent publication US20130123481A1, “MODIFIED NUCLEOSIDES, NUCLEOTIDES, AND NUCLEIC ACIDS, AND USES THEREOF” (MODERNA THERAPEUTICS, priority 2011, published 2013).
# Experiments:
# [1] = tested on: human embryonic kidney 293 (HEK293) cells; test: Toxicity of Nucleoside Triphosphates (NTPs), CYTO TOX-GLO assay; assay type: cell-based
# Procedure: The cytotoxicity of natural and modified nucleoside triphosphates (NTPs) alone or in combination with other bases, was analyzed in human embryonic kidney 293 (HEK293) cells in the absence of transfection reagent. […] 10 ul of the NTPs outlined in Table 12 were combined with 10 ul of lipid dilution and incubated for 30 minutes to form a complex before 80 ul of the HEK293 cell suspension was added to the NTP complex. Natural and modified NTPs were transfected at a concentration of 2.1 nM, 21 nM, 210 nM, 2.1 um, 21 uM, 210 um or 2.1 mM. NTPs in combination were transfected at a total concentration of NTPs of 8.4 nM, 84 nM, 840 nM, 8.4 uM, 84 uM, 840 uM and 8.4 mM.
# [2] = tested on: peripheral blood mononuclear cells (PBMC); test: In Vitro Screening in PBMC - G-CSF protein expression; assay type: cell-based, human; settings: 500 ng mRNA
# Description: The supernatant was harvested and stored frozen until analyzed by ELISA to determine the G-CSF protein expression, and the induction of the cytokines interferon-alpha (IFN-α) and tumor necrosis factor alpha (TNF-α).
# [3] = PBMC Donor 1, 0.4 uL Lipofectamine 2000
smiles,measurement,setting,value
Cn1cc([C@@H]2O[C@H](CO)[C@@H](O)[C@H]2O)c(=O)[nH]c1=O [N1-methyl pseudouridine],percent of viable cells,"[1]; HEK293, individual NTP 2.1 nM, 4 hr",91.89%
same,percent of viable cells,"[1]; HEK293, individual NTP 2.1 nM, 24 hr",87.79%
same,percent of viable cells,"[1]; HEK293, individual NTP 2.1 nM, 48 hr",87.81%
same,percent of viable cells,"[1]; HEK293, individual NTP 2.1 nM, 72 hr",92.98%
same,percent of viable cells,"[1]; HEK293, individual NTP 21 nM, 4 hr",91.44%
same,percent of viable cells,"[1]; HEK293, individual NTP 21 nM, 24 hr",86.85%
same,percent of viable cells,"[1]; HEK293, individual NTP 21 nM, 48 hr",86.72%
same,percent of viable cells,"[1]; HEK293, individual NTP 21 nM, 72 hr",92.84%
same,percent of viable cells,"[1]; HEK293, individual NTP 210 nM, 4 hr",92.15%
same,percent of viable cells,"[1]; HEK293, individual NTP 210 nM, 24 hr",85.89%
same,percent of viable cells,"[1]; HEK293, individual NTP 210 nM, 48 hr",87.38%
same,percent of viable cells,"[1]; HEK293, individual NTP 210 nM, 72 hr",92.40%
same,percent of viable cells,"[1]; HEK293, individual NTP 2.1 uM, 4 hr",90.41%
same,percent of viable cells,"[1]; HEK293, individual NTP 2.1 uM, 24 hr",85.72%
same,percent of viable cells,"[1]; HEK293, individual NTP 2.1 uM, 48 hr",85.85%
same,percent of viable cells,"[1]; HEK293, individual NTP 2.1 uM, 72 hr",92.25%
same,percent of viable cells,"[1]; HEK293, individual NTP 21 uM, 4 hr",91.48%
same,percent of viable cells,"[1]; HEK293, individual NTP 21 uM, 24 hr",85.17%
same,percent of viable cells,"[1]; HEK293, individual NTP 21 uM, 48 hr",87.52%
same,percent of viable cells,"[1]; HEK293, individual NTP 21 uM, 72 hr",93.83%
same,percent of viable cells,"[1]; HEK293, individual NTP 210 uM, 4 hr",91.43%
same,percent of viable cells,"[1]; HEK293, individual NTP 210 uM, 24 hr",86.48%
same,percent of viable cells,"[1]; HEK293, individual NTP 210 uM, 48 hr",86.02%
same,percent of viable cells,"[1]; HEK293, individual NTP 210 uM, 72 hr",93.03%
same,percent of viable cells,"[1]; HEK293, individual NTP 2.1 mM, 4 hr",92.45%
same,percent of viable cells,"[1]; HEK293, individual NTP 2.1 mM, 24 hr",88.92%
same,percent of viable cells,"[1]; HEK293, individual NTP 2.1 mM, 48 hr",89.84%
same,percent of viable cells,"[1]; HEK293, individual NTP 2.1 mM, 72 hr",96.80%
CNc1ncnc2c1ncn2[C@@H]1O[C@H](CO)[C@@H](O)[C@H]1O [N6-methyladenosine],G-CSF Protein Expression,[2]; [3],100 pg/mL
same,G-CSF Protein Expression,[2]; PBMC Donor 2,168 pg/mL
same,G-CSF Protein Expression,[2]; PBMC Donor 3,200 pg/mL
Nc1nc(=O)n([C@@H]2O[C@H](CO)[C@@H](O)[C@H]2O)cc1C=O [5-formylcytidine],G-CSF Protein Expression,[2]; [3],18 pg/mL
same,G-CSF Protein Expression,[2]; PBMC Donor 2,205 pg/mL
same,G-CSF Protein Expression,[2]; PBMC Donor 3,23 pg/mL
Nc1nc2nc[nH]c2c(=O)[nH]1 [Guanine],percent of viable cells,"[1]; human, 4 h, 2.1 nM",93.33%
same,percent of viable cells,"[1]; human, 4 h, 21 nM",92.84%
same,percent of viable cells,"[1]; human, 4 h, 210 nM",90.00%
same,percent of viable cells,"[1]; human, 4 h, 2.1 uM",90.60%
same,percent of viable cells,"[1]; human, 4 h, 21 uM",91.36%
same,percent of viable cells,"[1]; human, 4 h, 210 uM",90.14%
same,percent of viable cells,"[1]; human, 4 h, 2.1 mM",90.96%
same,percent of viable cells,"[1]; human, 24 h, 2.1 nM",85.41%
same,percent of viable cells,"[1]; human, 24 h, 21 nM",85.50%
same,percent of viable cells,"[1]; human, 24 h, 210 nM",86.35%
same,percent of viable cells,"[1]; human, 24 h, 2.1 uM",86.13%
same,percent of viable cells,"[1]; human, 24 h, 21 uM",85.93%
same,percent of viable cells,"[1]; human, 24 h, 210 uM",85.86%
same,percent of viable cells,"[1]; human, 24 h, 2.1 mM",86.37%
same,percent of viable cells,"[1]; human, 48 h, 2.1 nM",89.57%
same,percent of viable cells,"[1]; human, 48 h, 21 nM",87.92%
same,percent of viable cells,"[1]; human, 48 h, 210 nM",85.31%
same,percent of viable cells,"[1]; human, 48 h, 2.1 uM",87.89%
same,percent of viable cells,"[1]; human, 48 h, 21 uM",88.18%
same,percent of viable cells,"[1]; human, 48 h, 210 uM",87.05%
same,percent of viable cells,"[1]; human, 48 h, 2.1 mM",93.83%
same,percent of viable cells,"[1]; human, 72 h, 2.1 nM",93.72%
same,percent of viable cells,"[1]; human, 72 h, 21 nM",92.55%
same,percent of viable cells,"[1]; human, 72 h, 210 nM",92.19%
same,percent of viable cells,"[1]; human, 72 h, 2.1 uM",92.30%
same,percent of viable cells,"[1]; human, 72 h, 21 uM",92.39%
same,percent of viable cells,"[1]; human, 72 h, 210 uM",91.41%
same,percent of viable cells,"[1]; human, 72 h, 2.1 mM",97.04%
Nc1cc[nH]c(=O)n1 [Cytosine],percent of viable cells,"[1]; human, 4 h, 2.1 nM",93.34%
same,percent of viable cells,"[1]; human, 4 h, 21 nM",93.11%
same,percent of viable cells,"[1]; human, 4 h, 210 nM",88.95%
same,percent of viable cells,"[1]; human, 4 h, 2.1 uM",90.49%
same,percent of viable cells,"[1]; human, 4 h, 21 uM",91.41%
same,percent of viable cells,"[1]; human, 4 h, 210 uM",89.88%
same,percent of viable cells,"[1]; human, 4 h, 2.1 mM",90.51%
same,percent of viable cells,"[1]; human, 24 h, 2.1 nM",85.78%
same,percent of viable cells,"[1]; human, 24 h, 21 nM",86.16%
same,percent of viable cells,"[1]; human, 24 h, 210 nM",86.12%
same,percent of viable cells,"[1]; human, 24 h, 2.1 uM",86.70%
same,percent of viable cells,"[1]; human, 24 h, 21 uM",85.72%
same,percent of viable cells,"[1]; human, 24 h, 210 uM",86.33%
same,percent of viable cells,"[1]; human, 24 h, 2.1 mM",86.92%
same,percent of viable cells,"[1]; human, 48 h, 2.1 nM",88.99%
same,percent of viable cells,"[1]; human, 48 h, 21 nM",88.95%
same,percent of viable cells,"[1]; human, 48 h, 210 nM",85.36%
same,percent of viable cells,"[1]; human, 48 h, 2.1 uM",87.73%
same,percent of viable cells,"[1]; human, 48 h, 21 uM",87.28%
same,percent of viable cells,"[1]; human, 48 h, 210 uM",87.81%
same,percent of viable cells,"[1]; human, 48 h, 2.1 mM",94.23%
same,percent of viable cells,"[1]; human, 72 h, 2.1 nM",94.22%
same,percent of viable cells,"[1]; human, 72 h, 21 nM",91.80%
same,percent of viable cells,"[1]; human, 72 h, 210 nM",88.22%
same,percent of viable cells,"[1]; human, 72 h, 2.1 uM",88.93%
same,percent of viable cells,"[1]; human, 72 h, 21 uM",92.22%
same,percent of viable cells,"[1]; human, 72 h, 210 uM",92.34%
same,percent of viable cells,"[1]; human, 72 h, 2.1 mM",97.15%
